# Reference: US10973835B2, “Boron-containing small molecules for inhibiting activity of a receptor-like protein tyrosine phosphatase” (The Penn State Research Foundation, priority 2017, dated 2021)
# “Also recorded” adds a separate entry of the source. Like-named read-outs stand apart in the source and are kept apart here.
# What was measured:
# [1] = target: LAR-oxidized (Leukocyte common antigen-related, LAR) (Homo sapiens, UniProt P10586); assay: RPTP assay, standard assay conditions: phosphatase activity of oxidized LAR (DiFMUP substrate, TCEP reduction); format: biochemical
# Protocol: (§1) Leukocyte common antigen-related (LAR) and PTPσ were used as illustrative type IIa RPTPs. Illustratively, purified LAR (100 nM) was mixed with H2O2 (2 mM) in phosphatase assay buffer (50 mM HEPES, pH 7.0, 100 mM NaCl, 0.1% BSA) at room temperature for 10 minutes. Excess H2O2 was removed with a Zeba™ Desalting Column (Thermo Scientific) equilibrated in the assay buffer without any reducing agent. Phosphatase activity was measured for each protein sample using 6,8-difluoro-4-methylumbiliferyl phosphate (DiFMUP) as the substrate, with or without 5 mM Tris(2-carboxyethyl)phosphine hydrochloride (TCEP). Activity of the oxidized sample was compared to that of the untreated (unoxidized) sample in the presence of 5 mM TCEP.
# (§2) LAR-OX (10 nM) was incubated with compounds (0.1 mM) for varying lengths of time and the phosphatase activity was monitored using DiFMUP as substrate following reduction of the PTP with TCEP (5 mM). TCEP was not removed before adding DiFMUP. DiFMUP was added right after TCEP and the activity was followed continuously for 60 minutes. […] The above protocol was used to test the activity of other phosphatases (PTP1B, PTPσ, SHP2, PTPα, PTEN, and JSP1).
# PTPσ-oxidized = PTPσ-oxidized (Homo sapiens, UniProt Q13332); assay: RPTP assay, standard assay conditions: phosphatase activity of oxidized PTPσ; format: biochemical
# Protocol: as §1, §2
# [2] = system: MuSK phosphorylation (LAR dephosphorylating MuSK) in C2C12 myotubes; assay: MuSK tyrosine phosphorylation in agrin-stimulated C2C12 myotubes (anti-pTyr immunoprecipitation, anti-MuSK blot); format: cell-based, mouse
# Protocol: C2C12 cells serum starved (8 hours) and then treated with CL-37 for 1 hour. Following which, cells were stimulated with Agrin (10 nM) for varying lengths of time (0-60 minutes). The cells were lysed and lysates were used to immunoprecipitate tyrosine phosphorylated proteins using 4G10® (05-321 from EMD Milliooire Corp. and PY20 (such as ab10321 fromabcam Plc) antibodies for 90 minutes at 4 C. The immunocomplexes were washed and resolved on SDS gels and immunoblotted using anti-MUSK antibody. For the immunoprecipitation experiments, 1 mg of total cell lysate was incubated with anti-pTyr antibodies at 4° C. for 90 minutes. The interacting protein complexes were immunoprecipitated after incubating the lysate-antibody mixture with protein A/G Sepharose® at 4° C. for 30 minutes. After immunoprecipitation, Sepharose® beads were washed three times at 4° C. with wash buffer (PBS, pH 7.4, 0.05% BSA, 0.05% Tween®-20 and protease inhibitors). Complexes were separated by SDS-PAGE and immunoblotted using anti-MUSK antibody.
# C2C12 cells = assay: Cell vitality under the MuSK phosphorylation experimental condition; format: cell-based, mouse; details: C2C12, experimental condition of FIG. 3
# [3] = Stability of difluoroborate compounds using 19F and 11B NMR; details: acetonitrile-d3 alone and 80% acetonitrile-d3/20% D2O; up to seven days; room temperature
# [4] = Table 3, Formula IV, read-out: LAR-ox Ki
# [5] = Table 1, Formula II, potassium salt, R1 and R2 para to boron, read-out: LAR-ox Ki
# [6] = FIG. 1, oxidized form, 0.1 to 100 μM compound
# [7] = FIG. 4, assay similar to FIG. 3, agrin stimulation
# [8] = Table 2, Formula III, R1 and R2 para to boron, read-out: LAR-ox Ki
# Chain of PTPσ-oxidized (Q13332 30-1948): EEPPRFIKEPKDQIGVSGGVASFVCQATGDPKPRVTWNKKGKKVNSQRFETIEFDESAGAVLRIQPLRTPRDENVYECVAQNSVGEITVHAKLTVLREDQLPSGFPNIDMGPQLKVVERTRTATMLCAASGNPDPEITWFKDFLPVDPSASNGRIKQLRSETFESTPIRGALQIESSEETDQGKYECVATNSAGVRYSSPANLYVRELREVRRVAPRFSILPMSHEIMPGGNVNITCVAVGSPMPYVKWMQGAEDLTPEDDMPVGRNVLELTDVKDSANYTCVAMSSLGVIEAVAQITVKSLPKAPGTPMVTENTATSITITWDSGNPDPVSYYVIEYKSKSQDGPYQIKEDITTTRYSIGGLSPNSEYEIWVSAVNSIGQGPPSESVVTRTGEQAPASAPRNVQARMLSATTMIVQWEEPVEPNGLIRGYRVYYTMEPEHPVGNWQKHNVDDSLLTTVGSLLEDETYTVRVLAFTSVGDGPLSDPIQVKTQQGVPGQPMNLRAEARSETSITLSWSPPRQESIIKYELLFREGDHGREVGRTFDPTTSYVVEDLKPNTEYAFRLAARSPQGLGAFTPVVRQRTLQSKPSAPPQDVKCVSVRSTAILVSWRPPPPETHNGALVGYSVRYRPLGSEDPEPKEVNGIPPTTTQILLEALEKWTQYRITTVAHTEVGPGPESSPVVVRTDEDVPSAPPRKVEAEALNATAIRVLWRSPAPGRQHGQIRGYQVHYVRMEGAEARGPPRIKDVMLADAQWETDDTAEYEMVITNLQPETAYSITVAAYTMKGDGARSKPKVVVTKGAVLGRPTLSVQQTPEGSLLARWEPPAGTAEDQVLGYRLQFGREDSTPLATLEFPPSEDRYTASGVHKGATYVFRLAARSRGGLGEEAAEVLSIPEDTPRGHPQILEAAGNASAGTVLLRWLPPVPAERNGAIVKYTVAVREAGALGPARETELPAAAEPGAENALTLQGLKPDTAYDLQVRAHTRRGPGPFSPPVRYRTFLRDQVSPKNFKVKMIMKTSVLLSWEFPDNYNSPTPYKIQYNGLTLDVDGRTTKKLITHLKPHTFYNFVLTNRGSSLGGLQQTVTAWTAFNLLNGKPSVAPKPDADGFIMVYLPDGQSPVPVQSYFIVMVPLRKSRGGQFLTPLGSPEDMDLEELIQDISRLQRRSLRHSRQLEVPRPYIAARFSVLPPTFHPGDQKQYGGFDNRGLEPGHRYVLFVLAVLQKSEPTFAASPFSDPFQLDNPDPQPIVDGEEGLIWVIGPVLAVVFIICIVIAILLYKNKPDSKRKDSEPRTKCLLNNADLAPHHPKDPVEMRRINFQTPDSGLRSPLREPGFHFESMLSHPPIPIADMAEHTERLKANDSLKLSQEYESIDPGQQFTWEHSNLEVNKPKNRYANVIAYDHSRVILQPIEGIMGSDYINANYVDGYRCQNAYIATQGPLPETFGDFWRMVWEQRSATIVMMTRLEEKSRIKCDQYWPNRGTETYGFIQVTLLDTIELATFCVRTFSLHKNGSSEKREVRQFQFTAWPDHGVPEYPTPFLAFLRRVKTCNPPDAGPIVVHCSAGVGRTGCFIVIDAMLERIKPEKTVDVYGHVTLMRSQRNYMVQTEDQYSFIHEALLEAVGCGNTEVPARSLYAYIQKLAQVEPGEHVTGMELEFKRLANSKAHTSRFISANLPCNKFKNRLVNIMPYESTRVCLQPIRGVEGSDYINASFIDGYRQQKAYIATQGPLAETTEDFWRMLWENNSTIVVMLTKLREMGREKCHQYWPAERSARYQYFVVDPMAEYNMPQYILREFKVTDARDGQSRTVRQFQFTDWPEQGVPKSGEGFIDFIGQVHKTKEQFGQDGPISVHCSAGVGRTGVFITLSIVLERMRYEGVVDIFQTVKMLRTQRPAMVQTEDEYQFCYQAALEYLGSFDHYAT
# Chain of LAR-oxidized (Leukocyte common antigen-related, LAR) (P10586 30-1907): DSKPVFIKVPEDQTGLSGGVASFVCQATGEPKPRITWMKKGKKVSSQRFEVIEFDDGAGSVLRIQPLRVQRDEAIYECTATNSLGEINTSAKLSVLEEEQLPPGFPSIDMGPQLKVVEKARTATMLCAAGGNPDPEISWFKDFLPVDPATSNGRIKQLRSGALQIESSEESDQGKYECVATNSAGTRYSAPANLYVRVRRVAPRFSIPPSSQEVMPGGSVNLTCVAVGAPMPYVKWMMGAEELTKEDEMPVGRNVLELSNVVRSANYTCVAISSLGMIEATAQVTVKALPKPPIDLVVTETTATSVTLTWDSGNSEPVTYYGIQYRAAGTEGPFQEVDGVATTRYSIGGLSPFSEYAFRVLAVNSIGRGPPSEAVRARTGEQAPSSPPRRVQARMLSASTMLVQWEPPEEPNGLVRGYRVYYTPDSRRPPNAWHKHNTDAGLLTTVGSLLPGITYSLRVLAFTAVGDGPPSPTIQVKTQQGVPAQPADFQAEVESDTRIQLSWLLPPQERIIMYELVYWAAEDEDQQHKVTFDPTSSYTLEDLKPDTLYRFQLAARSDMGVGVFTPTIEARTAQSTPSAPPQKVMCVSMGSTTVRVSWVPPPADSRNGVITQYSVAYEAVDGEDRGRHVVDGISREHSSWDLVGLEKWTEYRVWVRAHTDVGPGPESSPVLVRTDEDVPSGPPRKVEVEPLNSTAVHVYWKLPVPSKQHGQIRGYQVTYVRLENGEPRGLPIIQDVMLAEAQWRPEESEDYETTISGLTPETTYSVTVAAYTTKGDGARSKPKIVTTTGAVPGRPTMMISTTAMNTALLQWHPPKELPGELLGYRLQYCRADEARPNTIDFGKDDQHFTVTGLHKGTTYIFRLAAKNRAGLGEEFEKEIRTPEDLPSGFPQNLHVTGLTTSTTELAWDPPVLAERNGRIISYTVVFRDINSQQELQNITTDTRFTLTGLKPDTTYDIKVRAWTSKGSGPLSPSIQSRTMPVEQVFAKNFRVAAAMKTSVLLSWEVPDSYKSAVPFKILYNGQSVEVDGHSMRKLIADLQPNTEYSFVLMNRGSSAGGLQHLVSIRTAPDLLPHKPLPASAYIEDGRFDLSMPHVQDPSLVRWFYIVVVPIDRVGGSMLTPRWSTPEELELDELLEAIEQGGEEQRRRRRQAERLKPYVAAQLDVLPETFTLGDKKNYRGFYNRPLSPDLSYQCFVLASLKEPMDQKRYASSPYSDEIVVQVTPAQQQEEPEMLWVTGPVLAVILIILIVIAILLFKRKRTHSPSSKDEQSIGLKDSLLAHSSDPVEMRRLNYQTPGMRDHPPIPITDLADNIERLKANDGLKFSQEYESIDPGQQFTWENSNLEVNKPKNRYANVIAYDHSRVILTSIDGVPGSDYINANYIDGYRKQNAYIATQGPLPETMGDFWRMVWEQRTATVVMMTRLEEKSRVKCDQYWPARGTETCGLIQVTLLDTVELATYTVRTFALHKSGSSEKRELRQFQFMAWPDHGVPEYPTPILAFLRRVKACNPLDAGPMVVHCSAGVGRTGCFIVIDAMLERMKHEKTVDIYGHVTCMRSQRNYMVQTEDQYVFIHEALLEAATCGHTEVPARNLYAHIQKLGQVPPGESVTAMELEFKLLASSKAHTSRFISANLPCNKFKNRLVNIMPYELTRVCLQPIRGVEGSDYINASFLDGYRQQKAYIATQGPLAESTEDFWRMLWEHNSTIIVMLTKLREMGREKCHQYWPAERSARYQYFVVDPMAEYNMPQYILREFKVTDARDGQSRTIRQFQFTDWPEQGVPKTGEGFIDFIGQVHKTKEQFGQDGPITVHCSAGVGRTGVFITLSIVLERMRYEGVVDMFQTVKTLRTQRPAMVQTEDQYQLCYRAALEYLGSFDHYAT
compound,measurement,setting,value
F[B-](F)(F)c1ccc(-c2ccccc2)cc1 [CL-70],Ki,[1]; read-out: LAR-oxidized Ki,> 1000 µM
C=CB(O)c1ccccc1 [CL-49],Ki,[1]; read-out: LAR-oxidized Ki,> 1000 µM
OB1OCCc2cc(F)ccc21 [Compound B-5],Ki,[1]; [4],> 1000 µM
same,Ki,[1]; read-out: LAR-oxidized Ki,> 1000 µM
same,Ki,PTPσ-oxidized; read-out: PTPσ-oxidized Ki,> 1000 µM
OB1OCCc2ccccc21 [Compound S-4],Ki,[1]; [4],500 µM
Nc1ccc2c(c1)COB2O [Compound B-2],Ki,[1]; read-out: LAR-oxidized Ki,> 1000 µM
same,Ki,PTPσ-oxidized; read-out: PTPσ-oxidized Ki,> 1000 µM
Fc1ccc([B-](F)(F)c2ccc(F)cc2)cc1 [CL-65],Ki,[1]; [5],4 µM
O=C(Nc1ccc2c(c1)B(O)OCC2)c1ccc(F)cc1 [Compound S-6],Ki,[1]; [4],> 1000 µM
same,Ki,[1]; read-out: LAR-oxidized Ki,> 1000 µM
F[B-](F)(c1ccccc1)c1ccccc1 [CL-37],phosphatase activity of LAR (inhibition),[1]; [6],most actively inhibited
same,Ki,[1]; [5],5 µM
same,phosphatase activity of PTP-sigma (inhibition),PTPσ-oxidized; [6],most actively inhibited
same,Ki,PTPσ-oxidized; read-out: PTPσ-oxidized Ki,4 µM
same,phosphorylation level of MuSK versus control,"[2]; FIG. 3, CL-37 5 μM, 1 hour pretreatment, agrin 10 nM, 0-60 minutes",significantly higher than the control; also recorded: inhibits LAR from dephosphorylating MuSK
same,phosphorylation level of MuSK versus control,[2]; [7],higher phosphorylation; also recorded: enhance the phosphorylation level of MUSK
same,effect on cell vitality,C2C12 cells,did not exhibit an adverse effect on cell vitality
COc1ccc([B-](F)(F)c2ccc(OC)cc2)cc1 [CL-60],Ki,[1]; [5],> 1000 µM
same,Ki,[1]; read-out: LAR-oxidized Ki,> 1000 µM
OB(c1ccccc1)c1ccccc1 [CL-30],Ki,[1]; [8],20 µM
OB(c1ccc(F)cc1)c1ccc(-c2ccccc2)cc1 [CL-73-2],Ki,[1]; [8],1 µM
same,phosphorylation level of MuSK versus control,[2]; [7],higher phosphorylation; also recorded: enhance the phosphorylation level of MUSK
Nc1ccc2c(c1)B(O)OCC2 [Compound B-14],Ki,[1]; [4],57 µM
same,Ki,PTPσ-oxidized; read-out: PTPσ-oxidized Ki,100 µM
F[B-](F)(c1ccc(Cl)cc1)c1ccc(Cl)cc1 [CL-61],Ki,[1]; [5],4 µM
Fc1ccc([B-](F)(F)c2ccc(-c3ccccc3)cc2)cc1 [CL-76],Ki,[1]; [5],1 µM
same,Ki,[1]; read-out: LAR-oxidized Ki,1 µM
same,phosphorylation level of MuSK versus control,[2]; [7],higher phosphorylation; also recorded: enhance the phosphorylation level of MUSK
F[B-](F)(c1ccc(Cl)cc1)c1ccc(-c2ccccc2)cc1 [CL-83],hydrolysis or degradation by 19F and 11B NMR,[3],no hydrolysis or degradation
OB1OCc2ccccc21 [Compound B-1],Ki,[1]; read-out: LAR-oxidized Ki,> 1000 µM
same,Ki,PTPσ-oxidized,> 1000 µM
OB1OCc2cc(F)ccc21 [Compound B-7],Ki,[1]; read-out: LAR-oxidized Ki,> 1000 µM
same,Ki,PTPσ-oxidized; read-out: PTPσ-oxidized Ki,> 1000 µM
